Results reported in PMC11241527, “Long-Chain Alkylthio Cyclodextrin Derivatives for Modulation of Quorum-Sensing-Based Bioluminescence in Aliivibrio fischeri Model System” (International Journal of Molecular Sciences, 2024).
Like-named read-outs stand apart in the source and are kept apart here.

Legend:
A. fischeri [1] = test: Bioluminescence inhibition assay in the Aliivibrio fischeri model system; assay type: cell-based; details: for EC20: 20% inhibition of bioluminescence after 120 min exposure; for inhibition at 2000 µM: read-out: inhibition of bioluminescence; for inhibitory effect on bioluminescence, upper limit in any case: any tested concentration and time, not statistically significant
Experimental: The time- and concentration-dependent effect of native α- and β-CDs, their N,N,N-trimethyl-ammoniopropyl derivatives, and novel alkylthio derivatives were tested in a series of short-term (30–120 min) experiments at 0.008–10 mM concentration range. To differentiate between the quorum-quenching effect and the cytotoxic effect of the CDs, bioluminescence as well as cell viability (the population growth and the enzyme activity) were determined.
(§1) The bacterial strain A. fischeri (NRRL B-111 77) was cultured and maintained in the laboratory under axenic circumstances. The 16 h old (overnight) cell culture applied for the tests was prepared by inoculating 30 mL of Photobacterium medium with an ampoule of lyophilized bacteria. The culture was shaken in the dark at 160 rpm, 24 °C, to an optical density of 0.6 at 600 nm (OD600).
The tested CD molecules were suspended in sterile distilled water and sterilized in an autoclave. A dilution series was prepared from the stock solutions (suspensions), covering a 0.04–50 mM concentration range.
The experiments were carried out with overnight A. fischeri cell culture in 96-well microtiter plates with a total volume of 250 µL. Fifty microliters of the members of the fivefold dilution series made from stock solutions were added to the wells of a sterile, transparent, 96-well, round-bottomed Sarstedt microtiter plate in four replicates. Distilled water was used as a negative control in the same volume.
To ensure the validity of data and verify the sensitivity of the bacteria, a five-member CuSO4 dilution series (1.6 ppm, 8 ppm, 40 ppm, 200 ppm, and […]) was used as a positive control. After that, 200 μL of the diluted overnight culture was added to the wells, except for the blank samples, for which 200 μL of Photobacterium medium was added instead.
The bioluminescence intensity was measured with a Fluostar Optima microplate reader (BMG Labtech, Ortenberg, Germany; fluorescence detection limit > 30 amol/well ATP) after 30, 60, and 120 min of exposure. The evaluation of the results was carried out as described by Ujaczki et al. (2015).
The determination of the concentration–response relationship is a method employed in the field of environmental toxicology, with the objective of objectively assessing the effects of different chemicals. The effective concentration endpoints (EC20 and EC50 values) of the tests are uniformly used for the quantification and comparison of the effects of chemicals and environmental matrices.

A. fischeri [2] = test: Optical density measurement, population growth assay; assay type: cell-based, Aliivibrio fischeri; details: for inhibition at 10000 µM: 10 mM; for inhibition at 2000 µM: 2 mM, read-out: inhibition of cell proliferation (population growth), maximum; for inhibition of population growth (optical density): within 30, 60 and 120 min, regardless of the concentration
Experimental: as §1
The measurements were carried out as described by Molnár et al. (2021). The OD was measured after the incubation period, following the bioluminescence inhibition assay with DIALAB ELx800 ELISA Microplate Reader (Dialab GmbH, Wiener Neudorf, Austria) at the wavelength of 630 nm.

A. fischeri [3] = test: Cell viability, tetrazolium (MTT) reduction assay; assay type: cell-based, Aliivibrio fischeri; details: 120 min; for inhibitive effect on cell viability, maximum: 0.08 mM; for inhibition in the viability: 10 mM
Experimental: The cell viability assay characterizing the activity of the hydrogen transport (the dehydrogenase enzyme activity) is based on the spectrophotometric measurement of the absorbance of a formazan product of the reduction in the tetrazolium salts.
The absorbance—which we determined after 120 min of exposure—is directly proportional to the metabolic activity of the cells.
To examine the potential influence of the CDs on the vitality of the bacteria, an enzyme activity assay was applied using 3-(4,5-dimethylthiazol-2-yl)-2,5-diphenyltetrazolium bromide (MTT).
Metabolically active cells reduce the […] MTT into a black formazan product, whose concentration is directly proportional to the activity of the viable cells. Following the population growth assay, the assay was performed in the same microplates by adding 30 μL of 4 mg/mL sterile MTT solution to each well.
The microtiter plate was then incubated for 30 min until color development.

[4] = Solubility in water at 25 °C; assay type: physicochemical; details: for solubility: read-out: WS, water solubility
Experimental: The characteristics: abbreviations (A), the molecular weight (MW), the solubility in water at 25 °C (WS), and the degree of substitution (DS) of the tested CDs are presented in Table 4 and Table 5.

A. fischeri [5] = test system: A. fischeri; set-up: method as in PMID 33321169; details: cited from earlier work
[6] = Aggregation studies by dynamic light scattering (volume particle size distribution); assay type: physicochemical; details: 1% aqueous solution, 25 °C
Experimental: Most CDs are prone to aggregation in aqueous solution due to their numerous hydroxyl moieties.
The aggregation behavior (nanoparticle formation) was studied by photon correlation spectroscopy (dynamic light scattering) using Malvern Zetasizer Nano ZS (Malvern Instruments, Malvern, UK) equipment at 25 °C using 1% aqueous solution.

[7] = Aliivibrio fischeri, 0.5 h, 30 min
[8] = Aliivibrio fischeri, 1 h, 60 min
[9] = Aliivibrio fischeri, 2 h, 120 min

In the case of `CCCCCCCCCCCCSC[C@H]1O[C@@H]2O[C@H]3[C@H](O)[C@@H](O)[C@@H](O[C@H]4[C@H](O)[C@@H](O)[C@@H](O[C@H]5[C@H](O)[C@@H](O)[C@@H](O[C@H]6[C@H](O)[C@@H](O)[C@@H](O[C@H]7[C@H](O)[C@@H](O)[C@@H](O[C@H]1[C@H](O)[C@H]2O)O[C@@H]7CO)O[C@@H]6CO)O[C@@H]5CO)O[C@@H]4CO)O[C@@H]3CO` [6S-C12-α-CD (3), 6-monodeoxy-6-monododecanethiol-α-CD], the “decrease in bioluminescence intensity” value (A. fischeri [1]; 0.4 mM, 120 min) is reported as 71%, the “decrease in bioluminescence intensity” value (A. fischeri [1]; 10 mM, 120 min) is reported as 79% and the EC20 (A. fischeri [1]) is reported as 60 µM. The EC50 (A. fischeri [1]; Aliivibrio fischeri, 2 h) was 160 µM, the inhibition at 2000 µM (A. fischeri [1]; Aliivibrio fischeri, 2 h) was 85% and the inhibition at 10000 µM (A. fischeri [2]; [7]) was 50%. For the same compound, the inhibition at 10000 µM (A. fischeri [2]; [8]) was 54%, the inhibition at 10000 µM (A. fischeri [2]; [9]) was 59% and the “decrease in cell viability, maximum” value (A. fischeri [3]; at 2 and 10 mM) was 40%. The solubility [4] was greater than 10000 µg/mL.

In the case of `CCCCCCCCCCCCSC[C@H]1O[C@@H]2O[C@H]3[C@H](O)[C@@H](O)[C@@H](O[C@H]4[C@H](O)[C@@H](O)[C@@H](O[C@H]5[C@H](O)[C@@H](O)[C@@H](O[C@H]6[C@H](O)[C@@H](O)[C@@H](O[C@H]7[C@H](O)[C@@H](O)[C@@H](O[C@H]8[C@H](O)[C@@H](O)[C@@H](O[C@H]1[C@H](O)[C@H]2O)O[C@@H]8CO)O[C@@H]7CO)O[C@@H]6CO)O[C@@H]5CO)O[C@@H]4CO)O[C@@H]3CO` [6S-C12-β-CD (7), 6-monodeoxy-6-monododecanethiol-β-CD], the EC20 (A. fischeri [1]) is reported as 90 µM, the inhibition at 2000 µM (A. fischeri [1]; Aliivibrio fischeri, 0.5 h) is reported as 77% and the inhibition at 2000 µM (A. fischeri [1]; Aliivibrio fischeri, 1 h) is reported as 76%. It also gave an EC50 (A. fischeri [1]; Aliivibrio fischeri, 2 h) of 760 µM, an inhibition at 2000 µM (A. fischeri [1]; Aliivibrio fischeri, 2 h) of 70% and an inhibition at 2000 µM (A. fischeri [2]; [7]) of 72%. The inhibition at 2000 µM (A. fischeri [2]; [8]) was 69%, the inhibition at 2000 µM (A. fischeri [2]; [9]) was 65% and the “vitality-reducing effect (cell viability)” value (A. fischeri [3]; 2 mM) was 41%. It also gave a solubility [4] greater than 10000 µg/mL.

For `OC[C@H]1O[C@@H]2O[C@H]3[C@H](O)[C@@H](O)[C@@H](O[C@H]4[C@H](O)[C@@H](O)[C@@H](O[C@H]5[C@H](O)[C@@H](O)[C@@H](O[C@H]6[C@H](O)[C@@H](O)[C@@H](O[C@H]7[C@H](O)[C@@H](O)[C@@H](O[C@H]8[C@H](O)[C@@H](O)[C@@H](O[C@H]1[C@H](O)[C@H]2O)O[C@@H]8CO)O[C@@H]7CO)O[C@@H]6CO)O[C@@H]5CO)O[C@@H]4CO)O[C@@H]3CO` [β-CD (5), Native β-CD, reference compound], the “inhibitory effect on bioluminescence, upper limit in any case” value (A. fischeri [1]) was no more than 35%, the inhibition at 80 µM (A. fischeri [2]; Aliivibrio fischeri, 0.5 h, read-out: inhibition of population growth, maximum) was no more than 34% and the “inhibitive effect on cell viability, maximum” value (A. fischeri [3]) was 15%.

In the case of `OC[C@H]1O[C@@H]2O[C@H]3[C@H](O)[C@@H](O)[C@@H](O[C@H]4[C@H](O)[C@@H](O)[C@@H](O[C@H]5[C@H](O)[C@@H](O)[C@@H](O[C@H]6[C@H](O)[C@@H](O)[C@@H](O[C@H]7[C@H](O)[C@@H](O)[C@@H](O[C@H]8[C@H](O)[C@@H](O)[C@@H](O[C@H]9[C@H](O)[C@@H](O)[C@@H](O[C@H]1[C@H](O)[C@H]2O)O[C@@H]9CO)O[C@@H]8CO)O[C@@H]7CO)O[C@@H]6CO)O[C@@H]5CO)O[C@@H]4CO)O[C@@H]3CO` [γ-CD], the “quorum-quenching efficacy (reduction of bacterial bioluminescence)” value (A. fischeri [5]; previous study) is listed as “ineffective”.

“N,N,N-Trimethylammoniopropyl-6-monodeoxy-6-monodecanethiol-α-CD [QA-6S-C10-α-CD (4)]” showed a reduction of bioluminescence (A. fischeri [1]; 1 mM, 120 min) of 69%, an EC20 (A. fischeri [1]) of 200 µM and an EC50 (A. fischeri [1]; 50% inhibition of bioluminescence after 120 min exposure, read-out: EC50) of 240 µM. For the same compound, the “inhibition of population growth (optical density)” value (“inhibition … (optical density)” below) (A. fischeri [2]) was “up to 30%” and the “inhibition of the enzyme activity (cell viability)” value (A. fischeri [3]; regardless of concentration) was 24–27%.

In the case of “N,N,N-Trimethylammoniopropyl-6-monodeoxy-6-monohexadecanethiol-β-CD [QA-6S-C16-β-CD (9)]”, the “inhibitory effect (QS inhibition, bioluminescence)” value (A. fischeri [1]; 1 mM, time not stated) is reported as 48%, the EC20 (A. fischeri [1]) is reported as 170 µM and the “inhibition of population growth” value (A. fischeri [2]; 5 mM, 120 min) is reported as 38%. The “inhibition of cell viability” value (A. fischeri [3]; 5 mM) was 35%, the “WS, water solubility” value [4] was roughly 10000 µg/mL and the “average size of larger aggregates” value [6] was 111 nm. For the same compound, the “size of larger aggregates with high polydispersity” value [6] was 50–500 nm.

For “N,N,N-Trimethylammoniopropyl-α-CD [QA-α-CD (2), reference compound]”, the EC20 (A. fischeri [1]) was 3140 µM, the “inhibition of bioluminescence (significance)” value (A. fischeri [1]; tested concentrations 0.08-10 mM, examined period 30-120 min) was “no significant inhibition” and the “inhibition … (optical density)” value (A. fischeri [2]) was “up to 30%”. The “inhibition in the viability” value (A. fischeri [3]) was 41%.

With “N,N,N-Trimethylammoniopropyl-β-CD [QA-β-CD (6), reference compound]” the “inhibitory effect on bioluminescence, upper limit in any case” value (A. fischeri [1]) was no more than 35%, the “inhibition of population growth, maximum” value (A. fischeri [2]; 0.08 mM, 30 min of exposure) was no more than 34% and the “inhibitive effect on cell viability, maximum” value (A. fischeri [3]) was 10%. The “WS, water solubility” value [4] was greater than 500000 µg/mL.

In the case of “Native α-CD [α-CD (1), reference compound]”, the “inhibition of bioluminescence (significance)” value (A. fischeri [1]) is reported as “no significant inhibition”, the EC20 (A. fischeri [1]) is reported as 80 µM and the “inhibition … (optical density)” value (A. fischeri [2]) is reported as “up to 30%”. For the same compound, the “inhibition in the viability” value (A. fischeri [3]) was 29% and the inhibition of bioluminescence (A. fischeri [5]; 10 mM, 120 min exposure time) was “over 60%”.
